Results on three compounds are retold here after patent publication US20150258062A1, “COMPOSITIONS AND METHODS FOR TREATMENT OF RENAL DISEASE” (priority 2009, published 2015).

For series [1], the system named is non-diabetic patients already receiving dual therapy with both an ACEI plus an ARB agent. As to conditions: after 1 year; non-diabetic patients on ACEI plus ARB; independent of BP changes; cited from earlier work.
Series [2] in a line: Clinic case studies: serum laboratory profile (uric acid, potassium, creatinine, urea nitrogen). The series is classed as in vivo, human.
A further series concerns Inward sodium current. To be noted: Table 1; cited from earlier work.
Series [3] concerns ventricular repolarization, QT interval and Torsade. To be noted: cited from earlier work.
Series [4] in a line: Clinic case studies: blood pressure, pulse, body weight, edema, GFR, EKG. The series is classed as in vivo, human.
For series [5], the system named is slow component of the delayed rectifier K+ current (IKs). To be noted: cited from earlier work.
The test system of another series is Inward Calcium current. As to conditions: Table 1; cited from earlier work.
For series [6], the system named is Outward potassium current. As to conditions: Table 1; cited from earlier work.

Turning to `CC(=O)S[C@@H]1CC2=CC(=O)CC[C@]2(C)[C@H]2CC[C@@]3(C)[C@@H](CC[C@@]34CCC(=O)O4)[C@H]12` [spironolactone], the “additive reduction of proteinuria” value in series [1] is 58%.

As to `CC1Cc2ccccc2N1NC(=O)c1ccc(Cl)c(S(N)(=O)=O)c1` (stereo not drawn) [indapamide, 4-chloro-N-(2-methyl-2,3-dihydroindol-1-yl)-3-sulfamoyl-benzamide], the uric acid in series [2] (Case 1, Day 25, indapamide 2.5 mg with losartan 50 mg, terazosin 2 mg) was 7.5 mg/dL. The creatinine in series [2] (Case 1, Day 25, indapamide 2.5 mg with losartan 50 mg, terazosin 2 mg, Day 0 value 2.3) stood at 2.6 mg/dL. Also, in series [2] (Case 1, Day 25, indapamide 2.5 mg with losartan 50 mg, terazosin 2 mg, Day 0 value 46), the urea nitrogen was determined as 36 mg/dL. In series [2] (Case 4, indapamide 1.25 mg per day with losartan, amlodipine, after 9 months, baseline 7.5), this compound came in with a serum uric acid of 7.0 mg/dL. Also, in series [2] (Example 3 Case 1, stage 4 CKD, Day 25, on indapamide 2.5 mg, losartan 50 mg, terazosin 2 mg since Day 13, Day 0 value 5.2), the serum potassium is on record as 4.1 mmol/L. The “serum creatinine and urea nitrogen” value in series [2] (Example 3 Case 4, diabetic nephropathy, losartan 100 mg, amlodipine 5 mg, indapamide 1.25 mg per day, after 9 months) is on record as “unchanged”. The “action on inward sodium current” value with Inward sodium current was “No effect”. For the same compound, in series [3] (Table 1), the QT dispersion entry is reported as “increased”, the QT interval result is “prolongs” and the Torsade result is given as “prediposes”. Further, the “QT interval and torsade de pointes in patients” value in series [3] (in the presence of normal electrolytes (Letsas, Alexanian et al. 2006)) was “QT interval prolongation and torsade de pointes”. The pedal edema entry in series [4] (Case 1, Day 34, indapamide 2.5 mg with losartan 50 mg, terazosin 2 mg, before spironolactone) is recorded as “decreased”. Besides, the blood pressure in series [4] (Case 1, Day 34, indapamide 2.5 mg with losartan, terazosin, Day 13 value 142/82) is on record as 150/90. In addition, the blood pressure in series [4] (Example 3 Case 2, diabetic nephropathy, 6 months, 1 month after indapamide 1.25 mg, diltiazem 300 mg started and losartan raised to 100 mg, before 168/108) is on record as 145/93. The “effect on IKs” value in series [5] is on record as “blocks”. The “action on inward calcium current” value with Inward Calcium current is listed as “No effect”. The “action on outward potassium current” value in series [6] was “Slows”.

Turning to `C[C@]12CCC(=O)C=C1CC[C@@H]1[C@@H]2[C@@H](O)C[C@]2(C=O)[C@@H](C(=O)CO)CC[C@@H]12` [Aldosterone], the “action on inward sodium current” value with Inward sodium current is on record as “Incresases”. For the same compound, the “action on inward calcium current” value with Inward Calcium current is “Increases”. The “action on outward potassium current” value in series [6] is on record as “No effect”.
